Results published in patent publication US20230218663A1, “COMPOSITIONS AND METHODS FOR TREATING A SARS-COV-2 INFECTION” (priority 2020, published 2023).
Like-named read-outs stand apart in the source and are kept apart here.

How the values were obtained:
SARS-CoV-2 [1] = type: cell-based
[2] = cited from earlier work
[3] = Chemical stability of bismuth drugs at different pH
VeroE6 cells = experiment: Cell viability assay (CellTiterGlo), VeroE6; type: cell-based, African green monkey; conditions: 48 hrs incubation; concentration based on metal content; read-out: CC50 VeroE6
Method: The CellTiterGlo® luminescent assay (Promega Corporation, Madison, Wis., USA) was performed to detect the cytotoxicity of the selected compounds as previously described^39. Briefly, VeroE6 cells (4×10^4 cells per well) and Caco2 cells (4×10^4 cells per well) were incubated with different concentrations of the individual compound in 96-well plates for 48 hrs, followed by the addition of the substrate and measurement of luminance 10 min later. Ridaura and Au(PEt3)Cl were dissolved in DMSO, and the final percentage of DMSO was kept at 1% in culture medium.

SARS-CoV-2 [4] = type: cell-based; remark: listed apart in the source
SARS-CoV-2 [5] = experiment: Golden Syrian hamster model, oral treatment (NAC studies); type: in vivo; conditions: hamster, in vivo

## Colloidal Bismuth Subcitrate [De-Nol]
SARS-CoV-2 [1]
  effect on virus replication, drug maintained after virus entry (post-entry): functioned at post-entry stages
[2]; gastric juice
  optimum pH for precipitation: 3.5
[2]; water
  solubility: soluble in water
[3]; pH 1.2, after 1 hour, without NAC
  bismuth found in the supernatant: less than 10%
[3]; pH 1.2, in the presence of 3 mol eq. NAC
  bismuth remaining in the supernatant: approximately 100%
[3]; pH 1.2, in the presence of 10 mol eq. NAC
  bismuth remaining in the supernatant: approximately 100%
[3]; pH 9.2
  hydrolysis at pH 9.2 in the presence of NAC: prevent hydrolysis
Caco-2 cell monolayer
  bismuth intestinal permeation within 60 min: moderately elevated
VeroE6 cells
  CC50: 3.254 ± 0.021 mM
SARS-CoV-2 [4]
  viral NP antigen-positive cells: 37.25%
SARS-CoV-2 [5]
  adverse clinical signs and symptoms: mildly mitigated
  pulmonary viral load compared with vehicle group: No statistically significant difference
SARS-CoV-2 [5]; po
  change in lung IL-6 level versus vehicle group: lowered but statistically non-significant change
PBS iso-pH 1.2, in the presence of 10 mol eq. NAC
  cumulative permeated bismuth: 24.91 ng/cm2
PBS iso-pH 1.2, without NAC
  cumulative permeated bismuth: 16.95 ng/cm2
